Broadly, the IC50 is the concentration at which inhibition is half-maximal.

Data on four molecules can be found in the Kinase Knowledgebase extract (Sharma et al. 2016).

Assay [1] addresses EGFR (human) (UniProt P00533).
Assay [2] concerns the target EGFR (human) (UniProt P00533). As to conditions: hn5.

Sequence of EGFR (human) (P00533 whole entry, looked up): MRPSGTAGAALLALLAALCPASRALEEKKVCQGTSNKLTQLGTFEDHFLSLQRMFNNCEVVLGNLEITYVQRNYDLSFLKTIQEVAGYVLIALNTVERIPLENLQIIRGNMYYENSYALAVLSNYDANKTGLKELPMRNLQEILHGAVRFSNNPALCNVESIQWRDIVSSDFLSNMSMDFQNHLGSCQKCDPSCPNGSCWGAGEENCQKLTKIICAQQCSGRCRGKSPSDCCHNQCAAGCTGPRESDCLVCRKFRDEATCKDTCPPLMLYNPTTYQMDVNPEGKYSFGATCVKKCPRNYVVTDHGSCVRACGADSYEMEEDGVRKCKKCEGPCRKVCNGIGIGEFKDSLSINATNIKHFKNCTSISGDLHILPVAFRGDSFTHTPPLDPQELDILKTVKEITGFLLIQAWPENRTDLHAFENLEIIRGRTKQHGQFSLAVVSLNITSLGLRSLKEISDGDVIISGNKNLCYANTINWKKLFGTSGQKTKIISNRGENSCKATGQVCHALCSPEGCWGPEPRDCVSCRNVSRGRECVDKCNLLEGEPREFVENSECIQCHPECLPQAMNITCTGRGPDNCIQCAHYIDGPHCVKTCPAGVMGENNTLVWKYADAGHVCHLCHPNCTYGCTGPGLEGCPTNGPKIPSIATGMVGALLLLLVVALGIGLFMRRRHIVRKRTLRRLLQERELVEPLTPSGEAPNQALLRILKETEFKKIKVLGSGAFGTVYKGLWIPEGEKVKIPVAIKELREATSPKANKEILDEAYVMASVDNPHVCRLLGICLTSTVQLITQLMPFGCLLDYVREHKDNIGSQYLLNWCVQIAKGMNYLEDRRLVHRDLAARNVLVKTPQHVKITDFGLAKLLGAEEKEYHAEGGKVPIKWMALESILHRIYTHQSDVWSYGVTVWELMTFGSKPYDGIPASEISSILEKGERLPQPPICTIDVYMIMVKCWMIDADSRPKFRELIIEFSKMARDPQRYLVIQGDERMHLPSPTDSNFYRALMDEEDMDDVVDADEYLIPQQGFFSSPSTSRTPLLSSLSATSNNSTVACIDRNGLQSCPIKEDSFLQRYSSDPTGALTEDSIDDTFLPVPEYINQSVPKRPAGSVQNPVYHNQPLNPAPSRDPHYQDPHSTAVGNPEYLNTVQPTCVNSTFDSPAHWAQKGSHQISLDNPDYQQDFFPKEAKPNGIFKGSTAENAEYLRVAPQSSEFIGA

With `CS(=O)(=O)CCNCc1ccc(-c2cc3c(Nc4ccc(OCc5ccccc5)cc4)ncnc3cn2)o1`, the half-inhibitory concentration (IC50) on EGFR (human) [1] came out at 25 nM; at EGFR (human) [2] it was 430 nM.
As for `Cc1nnc(-c2ccc3ncnc(Nc4ccc5c(cnn5Cc5cccc(F)c5)c4)c3c2)o1`, the values for the IC50 against EGFR (human) [1] and against EGFR (human) [2] were 26 nM and 830 nM, respectively.
For the molecule `CS(=O)(=O)CCNCc1ccc(-c2ccc3ncnc(Nc4ccc(S(=O)(=O)c5ccccc5)cc4)c3c2)o1`, the IC50 was 29 nM on EGFR (human) [1] and 1130 nM at EGFR (human) [2].
`CN(CCO)c1cc2c(Nc3ccc4c(cnn4Cc4ccccc4)c3)ncnc2cn1`: the IC50 against EGFR (human) [1] came out at 36 nM; against EGFR (human) [2] it was 300 nM.
